Measurements from patent US9850366B2, “Epdxidized fatty acid alkyl ester plasticizers and methods for making epdxidized fatty acid alkyl ester plasticizers” (Dow Global Technologies LLC, priority 2012, dated 2017).

Tests used:
[1] = Solution temperature of PVC in plasticizer (DIN 53408); assay type: physicochemical; conditions: 0.6 g PVC in 15 mL plasticizer, heated at 1° C./min
Protocol: In various embodiments, the polymeric resin (such as PVC) has a solution temperature in the above-described plasticizer of less than 180° C., less than 170° C., or less than 160° C., as determined by Deutsches Institut für Normung (“DIN”) standard method 53 408.
Determine solution temperature in accordance with Deutsches Institut für Normung (“DIN”) 53408. Important test parameters such as the PVC/plasticizer amount and heating rate are optimized to be able to capture differences in solution temperature of different plasticizers in PVC. 0.6 g PVC is accurately weighed in a 20-mL glass vial and 15 mL of plasticizer is added to the PVC. The contents of the glass vial are stirred using a magnetic stirrer and heated using an oil bath at 1° C./min. A thermometer is used to record the temperature of the PVC/plasticizer mixture which is illuminated with a flash-light. When PVC is mixed with a plasticizer, a milky solution is generally obtained. As the temperature of the PVC/plasticizer mixture is raised, the PVC starts to imbibe the plasticizer and becomes translucent. As the temperature is raised further, the PVC particles swell and lose their shape forming a gel. At the solution temperature, a clear solution is obtained.

[2] = Water solubility (water content of plasticizer by Karl Fischer titration after mixing with water); assay type: physicochemical; conditions: Table 1; water uptake of plasticizer at room temperature
Protocol: Water Solubility 20 mL of plasticizer is taken in a beaker and mixed with equal volume of distilled water. The mixture is stirred vigorously at room temperature and allowed to settle in a separating funnel. The mixture forms an emulsion which takes approximately 24 hours to form separate layers of organic and aqueous phases. After 48 hours, the two layers are separated. The aqueous layer is drained and the organic layer containing plasticizer and some water is recovered. The organic layer contains water in dissolved form as well as in the fine emulsion form. This layer is centrifuged at 7000 rpm for one hour. This step separates water trapped in the plasticizer in dispersed form. The plasticizer is further analyzed for water content with the help of wet chemistry methods. Carl Fischer titration method is used to determine the water content in plasticizer.

[3] = assay type: physicochemical
Protocol: Solubility in PVC is determined according to American Society for Testing and Materials (“ASTM”) method D 3367-98. […] Water solubility of the epoxidized fatty acid alkyl ester is determined according to the procedures described in the Test Methods section, below. Solubility in PVC Measure solubility in PVC according to ASTM D 3367-98. Test parameters, such as the design of centrifuge tubes, soak temperature, soak time, drainage of plasticizer, and centrifuge speed to remove excess plasticizer, are optimized to be able to capture differences in plasticizer absorption and solubilities of different plasticizers in PVC. Centrifuge tubes with a 0.8 mm diameter hole at the bottom are used for the test. […] During the soak time, the plasticizer molecules wet the cell walls of PVC particles and penetrate through it due to its porosity. Once inside, the molecules start filling the void space. After the void space is completely filled with plasticizer, the PVC primary particles start absorbing the plasticizer. This absorption is relatively slow and continues until the primary particles reach saturation limit. It is therefore important to optimize the PVC/plasticizer soaking temperature and time. […] The plasticizer absorbed by PVC is measured from the weight gain of PVC (after accounting for weight gain due to plasticizer absorbed by cotton).

Compound | Solution temperature (° C.) [1] | Water solubility (%) [2] | Solubility in PVC (g/100 g PVC) [3]
CCCCCCCCC1OC1CCCCCCCC(=O)OC (stereo not drawn) [Sample S1, epoxidized methyl oleate] | 114 °C | 0.68% | –
epoxidized methyl linolenate [CS3, reference compound] | 98 °C | – | –
epoxidized methyl linolenate [CS4, reference compound] | 98 °C | – | –
epoxidized methyl linolenate [CS2, reference compound] | 124 °C | – | –
CCCCCC1OC1CC1OC1CCCCCCCC(=O)OC (stereo not drawn) [Sample S2, epoxidized methyl linoleate] | 88 °C | – | 244 g/100 g PVC
CCCCCCCC[C@H]1O[C@H]1CCCCCCCC(=O)OC(C)C [Sample S7] | 134 °C | – | 34.1 g/100 g PVC
